Key:
[1] = ABTS decolourisation assay, Trolox equivalent antioxidant capacity; settings: water/DMSO (20% v/v), absorbance at 735 nm
Description: (§1) The generation of paramagnetic intermediates was monitored by cw-EPR spectroscopy using the EMXplus spectrometer and spin trapping technique. Deionised water was used for preparation of aqueous solutions. The spin trapping agent 5,5-dimethyl-1-pyrroline N-oxide (DMPO; Sigma-Aldrich) was distilled prior to the application. The EPR spectra were measured with following experimental parameters: X-band, room temperature, microwave frequency, 9.448 GHz; 100 kHz field modulation amplitude, 2 G; time constant, 10 ms; scan time, 21 s (three scans). Glutathione from Sigma-Aldrich; 6-hydroxy-2,5,7,8-tetramethylchroman-2-carboxylic acid (Trolox, 97%, Sigma-Aldrich); K2S2O8 (p.a. purity, Merck); 2,2′-azinobis [3-ethylbenzothiazoline-6-sulfonic acid] (ABTS; purum, >99%; Fluka) were used as received. Deionised high-purity grade H2O, with conductivity of […], was produced by using the TKA H2O purification system (Water Purification Systems GmbH, D-Niederelbert). For the ABTS decolourisation assay, the radical cations were pre-formed by the reaction of an aqueous solution of K2S2O8 (3.30 mg) in H2O (5 mL) with ABTS (17.2 mg). The resulting bluish-green radical cation (ABTS^•+) solution was stored overnight in the dark. […] The optical spectra were recorded from 1 to 40 min in 1 cm quartz UV cuvette after mixing the sample water/DMSO solution with ABTS^•+ in mixed solvent water/DMSO (20% (v/v)).

[2] = EPR spin trapping (DMPO/H2O2), ROS generation in cell-free media; settings: DMPO/H2O2 aqueous system
Description: as §1

For C[N+](C)(C)Cc1ccc(O)c(/C=N/NC(N)=S)c1 [[H2L^H]Cl], the “Trolox equivalent antioxidant capacity (TEAC)” value [1] was 0.74 and the radical formation [2] was “no radical formation”.

Source: paper PMC7565988, “Insight into the Anticancer Activity of Copper(II) 5-Methylenetrimethylammonium-Thiosemicarbazonates and Their Interaction with Organic Cation Transporters” (Biomolecules, 2020)
